The test system of test [1] is DNA-PK. Description: DNA-PK phosphorylation in treated 293 cells (western blotting). The format is cell-based. As to conditions: 2 hrs. On the procedure: (§1) C57BL/6J male mice (Jackson laboratory) were used at 7 wks of age unless specified. For fasting/feeding experiments, mice were fasted for 40 hrs and then fed a high carbohydrate, fat-free diet for indicated time periods. HepG2 cells were grown in DMEM supplemented with 10% fetal bovine serum and 100 units/ml penicillin/streptomycin. M059J and M059K were from ATCC and grown in the same medium containing 4 mg/ml glutamine. HepG2 cells were maintained in serum free media overnight prior to insulin treatment. For insulin treatment, HepG2 cells were treated with 100 nM insulin or DMSO for 30 min. 293FT cells in DMEM supplemented with 10% fetal bovine serum and 100 units/ml penicillin/streptomycin/neomycin or 293F cells in 293 Freestyle medium were transfected with expression constructs or siRNA (Santa Cruz) using lipofectamine 2000 (Invitrogen) or 293 Fectin (Invitrogen), respectively. 293 cells were treated with either control DMSO or OA at 1 uM and Taut at indicated concentrations for 2 hrs. […]
(§2) Therefore, Applicants tested the S262 phosphorylation status of USF-1 upon treatment with okadaic acid (OA), which is known to prevent dephosphorylation of DNA-PK (Douglas et al., 2001). […] Similarly, PP1 was not detected in nuclear extracts from control HepG2 cells but was increased upon insulin treatment (FIG. 3H, right panel). […]
(In general: In western blotting, separated proteins are transferred to a membrane and probed.)

The subject of test [2] is USF-1. Nature of the test: S262 phosphorylation of USF-1 in 293 cells (IP and western blotting). The format is cell-based. As to conditions: 2 hrs. On the procedure:
as §1, with “hrs. Expression vectors for DNA-PK and mutants, HAT, HDAC9, PP1, Kus and −0.7 p53-Luc were from laboratories of Drs. Meek, Kouzarides, Zelent, Lamond, Shay and Oren respectively. siRNA for knockdown of DNA-PK is commercially available at Santa Cruz Biotechnology Inc.” for “hrs.”
Next S262 phosphorylation of USF-1 by DNA-PK in cultured cells was tested. […] Applicants detected higher S262 phosphorylation of USF-1 immunoprecipitated from cells overexpressing WT DNA-PK (FIG. 3B, left panel, lane 2), but not from cells expressing DNA-PK with T3950D mutation (FIG. 3B, lane 3) or control cells (FIG. 3B, lane 1). Furthermore, Applicants detected even higher S262 phosphorylation of USF-1 from cells expressing DNAPK with T3950A mutation compared to WT DNA-PK-expressing cells (FIG. 3B, middle panel, lane 3). […] WT USF-1, but not USF-1 containing S262A mutation, was detected to have higher phosphorylation upon cotransfection with DNA-PK (FIG. 3B, right panel, lanes 2 and 3). […]

The test system of test [3] is USF-1. Description: K237 acetylation of USF-1 in cells (IP and western blotting). Format: cell-based. The following applies: OA-treated cells vs control cells. On the procedure:
as §1, with “respectively.” for “respectively. 293 cells were treated with either control DMSO or OA at 1 uM and Taut at indicated concentrations for 2 hrs.”
Since USF-1 is both phosphorylated and acetylated at nearby sites and these posttranslational modifications are critical for USF-1 function in FAS promoter activation, we tested whether an increase in S262 phosphorylation of USF-1 could affect K237 acetylation. […] Conversely, we detected a significant level of K237 acetylation of USF-1 in control cells, which was reduced in OA-treated cells (FIG. 5B, left panel, lane 2). […]

Test [4] deals with USF-1. Nature of the test: USF-1 interaction (IP) and recruitment of proteins to the FAS promoter (ChIP) in 293 cells. The format is cell-based. As to conditions: Taut at indicated concentrations for 2 hrs. The method, then: as §1, with “hrs. Expression vectors for DNA-PK and mutants, HAT, HDAC9, PP1, Kus and −0.7 p53-Luc were from laboratories of Drs.” for “hrs.”
Livers from fasted or fed mice were fixed with DSG at 2 mM for 45 min at RT before formaldehyde cross-linking Soluble chromatin was quantified by absorbance at 260 nm, and equivalent amounts of input DNA were immunoprecipitated. […]

In test [5] the test system is USF-1. Description: USF-1 S262 phosphorylation/K237 acetylation in HepG2 cells with or without insulin. The following applies: HepG2, control siRNA-transfected cells, insulin 100 nM 30 min. Format: cell-based. On the procedure:
as §1, with “hrs. Expression vectors for DNA-PK and mutants, HAT, HDAC9, PP1, Kus and −0.7 p53-Luc were from laboratories of Drs. Meek, Kouzarides, Zelent, Lamond, Shay and Oren respectively. siRNA for knockdown of DNA-PK is commercially available at Santa Cruz Biotechnology Inc.” for “hrs.”

In test [6] the test system is DNA-PK. Nature of the test: DNA-PK phosphorylation in HepG2 cells with or without insulin. The following applies: insulin-treated HepG2 cells vs noninsulin-treated cells. The format is cell-based. On the procedure:
as §1, with “hrs. Expression vectors for DNA-PK and mutants, HAT, HDAC9, PP1, Kus and −0.7 p53-Luc were from laboratories of Drs.” for “hrs.”
DNA-PK activity is known to be regulated by phosphorylation/dephosphorylation, independent of its activation by DNA. […] DNA-PK phosphorylation was detected using phosphoserine/threonine antibodies that detect autophosphorylation at the S/TQ motifs of DNA-PK.

The next test has as its system PP1. Description: PP1 in nuclear extracts of HepG2 cells. The following applies: insulin treatment vs control. The format is cell-based. The method, then:
as §1, §2

In test [7] the test system is USF-1. Nature of the test: USF-1 modifications in M059K cells containing WT DNA-PK. As to conditions: insulin 100 nM 30 min. Format: cell-based, human. On the procedure: as §1, with “hrs. Expression vectors for DNA-PK and mutants, HAT, HDAC9, PP1, Kus and −0.7 p53-Luc were from laboratories of Drs. Meek, Kouzarides, Zelent, Lamond, Shay and Oren respectively. siRNA for knockdown of DNA-PK is commercially available at Santa Cruz Biotechnology Inc.” for “hrs.”

In test [8] the test system is USF-1. Nature of the test: USF-1 modifications in M059J cells lacking DNA-PKcs. Format: cell-based, human. The following applies: insulin 100 nM 30 min. On the procedure: as §1, with “hrs. Expression vectors for DNA-PK and mutants, HAT, HDAC9, PP1, Kus and −0.7 p53-Luc were from laboratories of Drs. Meek, Kouzarides, Zelent, Lamond, Shay and Oren respectively. siRNA for knockdown of DNA-PK is commercially available at Santa Cruz Biotechnology Inc.” for “hrs.”

As to `C=C1[C@@H](O)[C@@H]2O[C@]3(CC[C@H](/C=C/[C@@H](C)[C@@H]4CC(C)=C[C@@]5(O[C@H](C[C@@](C)(O)C(=O)O)CC[C@H]5O)O4)O3)CC[C@H]2O[C@@H]1[C@@H](O)C[C@H](C)[C@H]1O[C@@]2(CCCCO2)CC[C@H]1C` [OA, okadaic acid], the “phosphorylation of DNA-PK” value in the test with DNA-PK [1] (OA 1 uM, vs control DMSO) is “greatly increased”. Further, the “S262 phosphorylation of USF-1” value in the test on USF-1 [2] (OA 1 uM, vs control DMSO) was “hardly detectable”. The “K237 acetylation of USF-1” value in the test with USF-1 [3] was “reduced”.
`CO[C@H]([C@H](O)CC(=O)[C@@H](C)[C@@H](O)CC[C@@H](C)[C@@H]1O[C@]2(CC[C@@H](C)[C@H](CC[C@H](C)C(C)=O)O2)CC[C@@H]1C)[C@H](OC(=O)C[C@@H](O)C1=C(C)C(=O)OC1=O)C(C)C` [Taut, tautomycin]: the “phosphorylated DNA-PK” value with DNA-PK [1] (Taut 1 uM, vs control cells) is recorded as “easily detected”. Moreover, the figures for the “S262 phosphorylation of USF-1” value in the test with USF-1 [2] (Taut 10 nM) and with USF-1 [2] (Taut 1 uM) were “decreased” and “hardly detectable”, respectively. In addition, the “USF-1 interaction and recruitment of various proteins” value with USF-1 [4] was “abolished”.
Consider insulin, for which, in the test with USF-1 [5], the “K237 acetylation of USF-1” value is reported as “markedly increased” and the “S262 phosphorylation of USF-1” value was “markedly increased”. For the same compound, the DNA-PK phosphorylation entry in the test on DNA-PK [6] is given as “not detectable”. Further, the “PP1 in nuclear extracts” value with PP1 is recorded as “increased”. Further, in the test on USF-1 [7], the “K237 acetylation of USF-1” value was “increased” and the “S262 phosphorylation of USF-1” value is on record as “increased”. Also, in the test with USF-1 [8], the “USF modifications (S262 phosphorylation, K237 acetylation)” value is “did not result in any significant increase”.

The record behind these values is patent US20110275699A1, “Treatment For Obesity And Diabetes” (University of California, priority 2010, published 2011).
